Assay results reported in PubChem BioAssay (NCI).
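1) Cells in 96-well plates. 2) Compound, 48 h, 5 concentrations. 3) Linear interpolation between surrounding doses. 4) Unreached endpoint = highest concentration. Here, GI50 denotes the concentration required for 50% inhibition of growth. Definition used: TGI = concentration required for complete inhibition of growth.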

Legend:
Assay in all cases: DTP human tumour cell line panel, 48 h
NCI-H460 lung = system: NCI-H460 lung
SN12C renal = system: SN12C renal
SK-MEL-28 melanoma = system: SK-MEL-28 melanoma
UO-31 renal = system: UO-31 renal
MALME-3M melanoma = system: MALME-3M melanoma
LOX IMVI melanoma = system: LOX IMVI melanoma
OVCAR-3 ovarian = system: OVCAR-3 ovarian
HCT-116 colon = system: HCT-116 colon
HCC-2998 colon = system: HCC-2998 colon
SF-539 CNS = system: SF-539 CNS

Row | Compound | TGI (NCI-H460 lung) | TGI (SN12C renal) | TGI (SK-MEL-28 melanoma) | TGI (UO-31 renal) | TGI (MALME-3M melanoma) | TGI (LOX IMVI melanoma) | TGI (OVCAR-3 ovarian) | TGI (HCT-116 colon) | TGI (HCC-2998 colon) | TGI (SF-539 CNS) | GI50 (NCI-H460 lung) | GI50 (SN12C renal) | GI50 (SK-MEL-28 melanoma) | GI50 (UO-31 renal) | GI50 (MALME-3M melanoma) | GI50 (LOX IMVI melanoma) | GI50 (OVCAR-3 ovarian) | GI50 (HCT-116 colon) | GI50 (HCC-2998 colon) | GI50 (SF-539 CNS)
1 | COC(=O)C#Cc1ccc([N+](=O)[O-])cc1 | 38.7 µM | 3.22 µM | 4.13 µM | 2.85 µM | 4.41 µM | 2.64 µM | 2.93 µM | 3.46 µM | 4.32 µM | 4.08 µM |  |  |  |  |  |  |  |  |  | 
2 | COc1cnc2c(c1)C(=O)c1c-2n(CCCN2CCN(C)CC2)c(=O)c2cc(Cl)ccc12 | 13.8 µM | 58.2 µM | 5.04 µM | 22.8 µM | 19.5 µM | 18.9 µM | 29.3 µM | > 100 µM | 26.8 µM | 5.31 µM | 0.377 µM | 10.2 µM | 2.3 µM | 3.74 µM | 5.77 µM | 0.779 µM | 15.1 µM | 0.982 µM | 11.3 µM | 2.15 µM
3 | Cc1ccc(NC(=O)c2ccnc(N3CCCC3)c2)cc1-c1ccc(C(=O)NCC2CC2)cc1 | > 25 µM | > 25 µM | > 25 µM | > 25 µM | > 25 µM | > 25 µM | > 25 µM | > 25 µM | > 25 µM | > 25 µM | > 25 µM | > 25 µM | > 25 µM | > 25 µM | > 25 µM | > 25 µM | > 25 µM | > 23.8 µM | > 25 µM | > 25 µM
4 | Cc1ccc2[nH]c(=O)c(C(C#N)c3ccccc3)nc2c1 (centres undefined) | > 100 µM | > 100 µM | > 100 µM | 69.9 µM | > 100 µM | > 100 µM | > 100 µM | > 100 µM | > 100 µM | > 100 µM |  |  |  |  |  |  |  |  |  | 
5 | Cc1ccc(C(=O)NC2CCCCC2)cc1-c1ccc(C(=O)NCC2CC2)cc1 | > 25 µM | > 25 µM | > 25 µM | > 25 µM | > 25 µM | > 25 µM | > 25 µM | > 25 µM | > 25 µM | > 25 µM | 16.8 µM | > 25 µM | > 25 µM | > 19.9 µM | > 25 µM | > 25 µM | > 23 µM | 20.9 µM | > 25 µM | > 25 µM
6 | CO[C@H]1CC[C@@]2(C)C(=CC[C@H]3[C@@H]4C[C@H](O)C[C@@]4(C)CC[C@@H]32)C1 | 13.9 µM | 22 µM | 22.1 µM | 23.4 µM | 19.4 µM | 24.5 µM | 5.63 µM | 18.1 µM | 27.2 µM | 8.64 µM | 3.56 µM | 6.61 µM | 8.55 µM | 6.53 µM | 5.22 µM | 6.17 µM | 2.47 µM | 4.88 µM | 11.6 µM | 3.01 µM
7 | COC(=O)N/N=C(\C)C(CN1CCOCC1)C(c1ccccc1)c1cc2ccccc2oc1=O (centres undefined) | > 100 µM | > 100 µM | > 100 µM | > 100 µM | > 100 µM | > 100 µM | > 100 µM | > 100 µM | > 100 µM | > 100 µM |  |  |  |  |  |  |  |  |  | 
8 | COC(=O)Nc1nc2ccc(Oc3ccc(NC(=O)Nc4cccc(Cl)c4)cc3)cc2[nH]1 | 3.86 µM | 11.7 µM | 7.41 µM | > 21.4 µM | 7.95 µM | 6.6 µM | 2.23 µM | 5.29 µM | > 25 µM | 6.85 µM | 0.802 µM | 2.06 µM | 1.84 µM | 6.93 µM | 0.564 µM | 1.42 µM | 0.768 µM | 1.09 µM | 7.98 µM | 0.658 µM
9 | COc1ccc(-c2nc(-c3nc4cc(C)c(C)cc4[nH]3)cc3c2[nH]c2ccccc23)cc1 | > 100 µM | > 100 µM | 10.5 µM | 52.5 µM | 16.5 µM | 11.2 µM | 4.6 µM | 13 µM | 94.8 µM | 4.24 µM | 3.49 µM | 5.54 µM | 2.89 µM | 2.53 µM | 4.6 µM | 3.08 µM | 2.25 µM | 3.22 µM | 3.88 µM | 1.72 µM
10 | COc1ccccc1NC(=O)C1=C(C)NC(C)=C(C(=O)Nc2ccccc2OC)C1c1ccccc1OC | > 100 µM | > 100 µM | > 100 µM | > 100 µM | > 100 µM | > 100 µM | > 100 µM | > 100 µM | > 100 µM | > 100 µM |  |  |  |  |  |  |  |  |  | 
11 | COc1cc2c(cc1OC)[C@@]1(C)C(=O)c3cc4c(cc3[C@H]1N(C)C2=O)OCO4 | > 100 µM | > 100 µM | > 100 µM | > 100 µM | > 100 µM | > 100 µM | > 100 µM | > 100 µM | > 100 µM | 75.7 µM | 37.7 µM | 82.4 µM | > 100 µM | 34.8 µM | 75.1 µM | 48.4 µM | 96.2 µM | 43.6 µM | 74.7 µM | 24 µM
12 | COC(=O)c1c2c(c(C)[n+]([O-])c1C)C(=O)C(NCc1ccc(F)c(F)c1)=CC2=O | 10.2 µM | 4.32 µM | 13.8 µM | 6.9 µM | 0.874 µM | 6.76 µM | 1.09 µM | 5.71 µM | 5.35 µM | 4.12 µM | 2.13 µM | 1.73 µM | 4.11 µM | 1.94 µM | 0.238 µM | 1.98 µM | 0.333 µM | 1.65 µM | 2.26 µM | 1.92 µM
13 | CC12CC3CC(C)(C1)CC(N=[N+]=[N-])(C3)C2 | > 100 µM | > 100 µM | > 100 µM | > 100 µM | > 100 µM | > 100 µM | > 100 µM | > 100 µM | > 100 µM | > 100 µM |  |  |  |  |  |  |  |  |  | 
14 | Cc1cccc(N=C2c3cc([N+](=O)[O-])ccc3-c3c2cc([N+](=O)[O-])cc3[N+](=O)[O-])c1 | 14.4 µM | 4.8 µM | 31.3 µM | 29.9 µM | 21.2 µM | 2.93 µM |  | 3.37 µM | 18.7 µM | 37.8 µM | 3.64 µM | 2.14 µM | 13.3 µM | 10.9 µM | 4.82 µM | 1.57 µM | 2.95 µM | 1.67 µM | 6.45 µM | 17 µM
15 | CCOC(=O)C1=C(C)N(NC(=O)c2ccccc2)C2(O)CCCC12C(=O)OCC (centres undefined) | > 100 µM | > 100 µM | > 100 µM | > 100 µM | > 100 µM | > 100 µM | > 100 µM | > 100 µM | > 100 µM | > 100 µM |  |  |  |  |  |  |  |  |  | 
16 | NC(=O)Oc1cc(OC(N)=O)cc(N(CCCl)CCCl)c1 | 26.9 µM | > 100 µM | 65.3 µM | 15.9 µM | 23.3 µM | > 100 µM | 25.9 µM | > 100 µM | 61.9 µM | 5.96 µM | 0.748 µM | 2.41 µM | 15.7 µM | 2.57 µM | 5.73 µM | 2.3 µM | 4.74 µM | 7.77 µM | 16.9 µM | 1.65 µM
17 | CCC[CH2][Sn]([CH2]CCC)([S]C1=NCCS1)[S]C1=NCCS1 | 3.26 µM | 1.82 µM | 0.353 µM | 2.51 µM | 0.555 µM | 0.555 µM | 1.87 µM | 1.91 µM | 1.94 µM | 0.449 µM | 1.52 µM | 0.502 µM | 0.146 µM | 1.13 µM | 0.157 µM | 0.186 µM | 0.563 µM | 0.615 µM | 0.654 µM | 0.164 µM
18 | CC(C)(O)[C@H]1[C@@H]2OC(=O)[C@H]1[C@]1(O)C[C@H]3OC34C(=O)O[C@H]2[C@@]41C (some centres undefined) (tested in a mixture with another compound) | > 100 µM | > 100 µM | > 100 µM | > 100 µM | > 100 µM | > 100 µM | > 100 µM | > 100 µM | > 100 µM | > 100 µM |  |  |  |  |  |  |  |  |  | 
19 | O=C(O)c1cccc(CC(Br)C(=O)O)c1 (centres undefined) | > 100 µM | > 100 µM | > 100 µM | > 100 µM | > 100 µM | > 100 µM | > 100 µM | > 100 µM | > 100 µM | > 100 µM |  |  |  |  |  |  |  |  |  | 
20 | COC(=O)C1C(=O)O[C@@H](c2ccc(OC)cc2OC)C1C(=O)OC (some centres undefined) | > 100 µM | > 100 µM | > 100 µM | > 100 µM | > 100 µM | > 100 µM | > 100 µM | > 100 µM | > 100 µM | > 100 µM |  |  |  |  |  |  |  |  |  | 
21 | C/C(=C\c1c[nH]c2ccccc12)[N+](=O)[O-] | 17.4 µM | 14.4 µM | 5.47 µM | 17.7 µM | 7.85 µM | 4.86 µM | 24.8 µM | 8.08 µM | 23 µM | 15.2 µM | 4.18 µM | 3.53 µM | 1.84 µM | 4.85 µM | 2.54 µM | 1.89 µM | 8.57 µM | 2.37 µM | 10.5 µM | 3.7 µM
